Results published in patent US4579822A (priority 1983, dated 1986).
Like-named read-outs stand apart in the source and are kept apart here.

Legend:
[1] = system: DHAK (II); test: Substrate specificity of DHAK (II); assay type: biochemical, Schizosaccharomyces pombe IFO 0354; details: for Relative activity DHAK (II) (substrate): each substrate 1.0 mM, pH 7.5, 25° C., DHA = 100%; for Action of DHAK (II) on substrate (in words): summary of Table 1
Experimental: (§1) The reaction mixture for measuring the substrate specificity of DHAK consists of 1.0 ml of 0.1M triethanolamine-HCl buffer (pH 7.5), 2.5 mM ATP, 4 mM MgSO4, 0.2 mM NADH, 1.3 mM phosphoenolpyruvate, 6 units of pyruvate kinase, 6 units of lactate dehydrogenase (Boehringer Mannheim GmbH), 0.01 ml of enzyme solution and each substrate (1.0 mM) as shown in Table 1. The reaction is started by adding enzyme solution and measured the decrease in the absorbance at 340 nm at 25° C. The above reaction is represented by the following equations: [drawing 4]

[2] = biological target: T1, DHAK (I) (Schizosaccharomyces pombe, UniProt O13902); test: Substrate specificity of DHAK (I); assay type: biochemical, Schizosaccharomyces pombe IFO 0354
T1 construct: DHAK (I) and DHAK (II) obtained from Schizosaccharomyces pombe IFO 0354; made in house; host or cells: Schizosaccharomyces pombe IFO 0354 (natural producer, not recombinant); cell extract, DEAE-Sepharose fraction at 0.12 M KCl, then Blue-Sepharose
T1 sequence (O13902 1-580): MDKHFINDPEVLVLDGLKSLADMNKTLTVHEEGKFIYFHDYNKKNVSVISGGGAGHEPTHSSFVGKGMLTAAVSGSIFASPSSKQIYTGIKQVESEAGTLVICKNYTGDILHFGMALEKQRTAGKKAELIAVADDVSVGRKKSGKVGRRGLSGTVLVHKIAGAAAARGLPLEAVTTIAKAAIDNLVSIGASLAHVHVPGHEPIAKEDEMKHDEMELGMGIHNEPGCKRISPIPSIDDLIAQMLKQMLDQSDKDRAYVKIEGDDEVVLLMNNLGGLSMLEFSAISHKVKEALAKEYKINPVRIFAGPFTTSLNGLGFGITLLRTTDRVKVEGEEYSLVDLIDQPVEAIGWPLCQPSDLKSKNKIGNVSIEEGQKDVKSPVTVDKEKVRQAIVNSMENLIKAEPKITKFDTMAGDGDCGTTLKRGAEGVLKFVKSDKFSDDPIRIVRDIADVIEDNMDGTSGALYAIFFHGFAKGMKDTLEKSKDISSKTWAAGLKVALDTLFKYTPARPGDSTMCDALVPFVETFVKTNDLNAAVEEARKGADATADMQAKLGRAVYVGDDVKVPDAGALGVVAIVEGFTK
Experimental: as §1

[3] = biological target: T2, DHAK (II) (Schizosaccharomyces pombe, UniProt O74215); test: Specificity of DHAK (II) for phosphate donor; assay type: biochemical, Schizosaccharomyces pombe IFO 0354; details: for Relative activity DHAK (II) (phosphate donor): Adenosine 5'-triphosphate = 100%
T2 construct: DHAK (I) and DHAK (II) obtained from Schizosaccharomyces pombe IFO 0354; made in house; host or cells: Schizosaccharomyces pombe IFO 0354 (natural producer, not recombinant); cell extract, DEAE-Sepharose fraction at 0.16 M KCl, then Blue-Sepharose
T2 sequence (O74215 1-591): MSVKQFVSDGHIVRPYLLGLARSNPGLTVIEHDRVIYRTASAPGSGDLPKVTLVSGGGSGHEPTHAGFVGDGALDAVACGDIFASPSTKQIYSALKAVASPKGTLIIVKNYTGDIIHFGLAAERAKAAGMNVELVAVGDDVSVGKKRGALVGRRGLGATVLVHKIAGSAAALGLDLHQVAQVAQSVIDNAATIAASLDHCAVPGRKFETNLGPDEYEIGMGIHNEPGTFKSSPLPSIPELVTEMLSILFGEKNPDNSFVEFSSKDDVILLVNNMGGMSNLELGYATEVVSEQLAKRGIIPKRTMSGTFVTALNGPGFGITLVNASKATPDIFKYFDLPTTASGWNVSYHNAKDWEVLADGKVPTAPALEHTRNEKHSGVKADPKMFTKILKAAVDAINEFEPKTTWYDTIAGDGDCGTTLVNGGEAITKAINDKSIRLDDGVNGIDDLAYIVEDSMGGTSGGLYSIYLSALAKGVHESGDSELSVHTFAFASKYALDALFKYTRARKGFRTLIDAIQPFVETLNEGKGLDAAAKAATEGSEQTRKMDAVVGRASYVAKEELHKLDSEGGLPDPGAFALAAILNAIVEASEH
Experimental: (§2) The reaction is started by adding enzyme solution, and the decrease of the absorbance at 340 nm is measured spectrophotometrically at 25° C. In the blank assay, DHA is excluded from the reaction mixture. One unit of the enzyme activity is defined as the amount of enzyme which catalyzes the formation of 1 μmol NAD^+ in one minute under the above conditions. The above reaction is represented by the following equations: [drawing 3]

[4] = biological target: T1, DHAK (I); test: Specificity of DHAK (I) for phosphate donor; assay type: biochemical, Schizosaccharomyces pombe IFO 0354; details: for Relative activity DHAK (I) (phosphate donor): Adenosine 5'-triphosphate = 100%
Experimental: as §2

[5] = biological target: T1, DHAK (I); test: Specificity of DHAK (I) for divalent metal cations; assay type: biochemical, Schizosaccharomyces pombe IFO 0354; details: for Relative activity DHAK (I) (metal cation): each divalent metal cation 4 mM, MgSO4 = 100%
Experimental: as §2
(§3) Each divalent metal cation (4 mM) was added to the reaction mixture and the activity of the enzyme was measured.

[6] = biological target: T2, DHAK (II); test: Specificity of DHAK (II) for divalent metal cations; assay type: biochemical, Schizosaccharomyces pombe IFO 0354; details: for Relative activity DHAK (II) (metal cation): each divalent metal cation 4 mM, MgSO4 = 100%
Experimental: as §2, §3

[7] = substrate: Nc1ncnc2c1ncn2[C@@H]1O[C@H](COP(=O)(O)OP(=O)(O)OP(=O)(O)O)[C@@H](O)[C@H]1O; test: Km values of DHAK (I) for substrates and coenzyme; assay type: biochemical, Schizosaccharomyces pombe IFO 0354; details: other: pH 7.5, 25° C.
[8] = substrate: O=CC(O)CO; test: Km values of DHAK (I) for substrates and coenzyme; assay type: biochemical, Schizosaccharomyces pombe IFO 0354; details: other: pH 7.5, 25° C.
[9] = substrate: O=C(CO)CO; test: purified protein, by the assay type; details: other: pH 7.5, 25° C.
[10] = substrate: Nc1ncnc2c1ncn2[C@@H]1O[C@H](COP(=O)(O)OP(=O)(O)OP(=O)(O)O)[C@@H](O)[C@H]1O; test: Km values of DHAK (II) for substrates and coenzyme; assay type: biochemical, Schizosaccharomyces pombe IFO 0354; details: other: pH 7.5, 25° C.
[11] = substrate: O=CC(O)CO; test: Km values of DHAK (II) for substrates and coenzyme; assay type: biochemical, Schizosaccharomyces pombe IFO 0354; details: other: pH 7.5, 25° C.
[12] = substrate: O=C(CO)CO; test: Km values of DHAK (II) for substrates and coenzyme; assay type: biochemical, Schizosaccharomyces pombe IFO 0354; details: other: pH 7.5, 25° C.
[13] = pH 7.5, read-out: Relative activity DHAK (I) (substrate)
[14] = pH 7.5; read-out: Relative activity DHAK (I) (substrate)
[15] = cation 4 mM, summary of Table 3
[16] = concentration in the reaction mixture

How did the “Relative activity DHAK (II) (substrate)” value [1] turn out when `O=CC(O)CO` (racemic) [DL-Glyceraldehyde] was run?
Its value is 12%.

What about the “Action of DHAK (II) on substrate (in words)” value [1] of the same molecule?
The value was “slightly”.

What about the activity at 1000 µM [2, 13] of the same molecule?
Its activity at 1000 µM is 27%.

What about the “Action of DHAK (I) on substrate (in words)” value ([2]; summary of Table 1) of the same molecule?
Its value is “slightly”.

Which results are given for `O=C(O)C(O)CO` (racemic) [DL-Glyceric acid]?
Relative activity DHAK (II) (substrate) [1]: 0%; activity at 1000 µM [2, 14]: 0%

What does the source list for `CC(O)CO` (centres unmarked) [1,2-Propanediol]?
Relative activity DHAK (II) (substrate) [1]: 0%; activity at 1000 µM [2, 13]: 0%

What does the source list for `OCCCO` [1,3-Propanediol]?
Relative activity DHAK (II) (substrate) [1]: 0%; activity at 1000 µM [2, 13]: 0%

Which “Relative activity DHAK (II) (substrate)” value [1] does the source give for `CC(=O)C(C)O` (centres unmarked) [Acetoin] here?
Its value is 0%.

And the activity at 1000 µM [2, 13]?
Its activity at 1000 µM is 0%.

How did the “Relative activity DHAK (II) (substrate)” value [1] turn out when `CC(=O)CO` [Acetol] was run?
Its value is 0%.

What about the activity at 1000 µM [2, 13] of the same molecule?
Its activity at 1000 µM is 0%.

For `Nc1ncnc2c1ncn2[C@@H]1O[C@H](COP(=O)(O)OP(=O)(O)OP(=O)(O)O)[C@@H](O)[C@H]1O` [Adenosine 5'-triphosphate], which “Relative activity DHAK (II) (phosphate donor)” value [3] is on record?
Its value is 100%.

What about the “Phosphate donor ranking for DHAK (II) (in words)” value ([3]; summary of Table 2) of the same molecule?
Its value is “best phosphate donor”.

And the “Relative activity DHAK (I) (phosphate donor)” value [4]?
Its value is 100%.

What about the “Phosphate donor ranking for DHAK (I) (in words)” value ([4]; summary of Table 2) of the same molecule?
Its value is “best phosphate donor”.

With `[Ca+2].[Cl-].[Cl-]` [CaCl2] as the molecule, how does the “Metal cation ranking for DHAK (I) (in words)” value [5, 15] read?
The value was “maximum activity”.

And the “Relative activity DHAK (I) (metal cation)” value [5]?
Its value is 125%.

What about the “Relative activity DHAK (II) (metal cation)” value [6] of the same molecule?
The value was 44%.

How did the “Relative activity DHAK (I) (metal cation)” value [5] turn out when `[Cl-].[Cl-].[Co+2]` [CoCl2] was run?
Its value is 29%.

And the “Relative activity DHAK (II) (metal cation)” value [6]?
The value was 22%.

For `Nc1ccn([C@@H]2O[C@H](COP(=O)(O)OP(=O)(O)OP(=O)(O)O)[C@@H](O)[C@H]2O)c(=O)n1` [Cytidine 5'-triphosphate], which “Relative activity DHAK (II) (phosphate donor)” value [3] is on record?
The value was 0%.

And the “Relative activity DHAK (I) (phosphate donor)” value [4]?
The value was 0%.

With `O=C(CO)CO` [DHA, dihydroxyacetone] as the molecule, how does the “Relative activity DHAK (II) (substrate)” value [1] read?
Its value is 100%.

What about the “Action of DHAK (II) on substrate (in words)” value [1] of the same molecule?
The value was “act on”.

What about the activity at 1000 µM [2, 14] of the same molecule?
Its activity at 1000 µM is 100%.

For `O=P(O)(O)OCC(O)CO` (centres unmarked) [Glycerol-3-phosphate], which “Relative activity DHAK (II) (substrate)” value [1] is on record?
Its value is 0%.

And the activity at 1000 µM [2, 14]?
Its activity at 1000 µM is 0%.

What does the source list for `OCC(O)CO` [Glycerol]?
Relative activity DHAK (II) (substrate) [1]: 0%; activity at 1000 µM [2, 14]: 0%

Which results are given for `Nc1nc2c(ncn2[C@@H]2O[C@H](COP(=O)(O)OP(=O)(O)OP(=O)(O)O)[C@@H](O)[C@H]2O)c(=O)[nH]1` [Guanosine 5'-triphosphate]?
Relative activity DHAK (II) (phosphate donor) [3]: 0%; Relative activity DHAK (I) (phosphate donor) [4]: 0%

What does the source list for `O=P(O)(O)OP(=O)(O)OP(=O)(O)OC[C@H]1O[C@@H](n2cnc3c(O)ncnc32)[C@H](O)[C@@H]1O` [Inosine 5'-triphosphate]?
Relative activity DHAK (II) (phosphate donor) [3]: 0%; Relative activity DHAK (I) (phosphate donor) [4]: 0%

With `O=S(=O)([O-])[O-].[Mg+2]` [MgSO4] as the molecule, how does the “Mg^2+ concentration giving sufficient activity of DHAK (I)” value [5, 16] read?
The value was at least 4 mM.

What about the “Relative activity DHAK (I) (metal cation)” value [5] of the same molecule?
Its value is 100%.

And the “Metal cation ranking for DHAK (II) (in words)” value [6, 15]?
Its value is “maximum activity”.

What about the “Mg^2+ concentration giving sufficient activity of DHAK (II)” value [6, 16] of the same molecule?
Its value is at least 4 mM.

What about the “Relative activity DHAK (II) (metal cation)” value [6] of the same molecule?
Its value is 100%.

`[Cl][Mn][Cl]` [MnCl2] was tested. Which “Relative activity DHAK (I) (metal cation)” value [5] did it give?
The value was 15%.

What about the “Relative activity DHAK (II) (metal cation)” value [6] of the same molecule?
The value was 9%.

Which “Relative activity DHAK (I) (metal cation)” value [5] does the source give for `[Cl][Ni][Cl]` [NiCl2] here?
Its value is 0%.

And the “Relative activity DHAK (II) (metal cation)” value [6]?
The value was 0%.

With `O=c1ccn([C@@H]2O[C@H](COP(=O)(O)OP(=O)(O)OP(=O)(O)O)[C@@H](O)[C@H]2O)c(=O)[nH]1` [Uridine 5'-triphosphate] as the molecule, how does the “Relative activity DHAK (II) (phosphate donor)” value [3] read?
The value was 3.6%.

What about the “Relative activity DHAK (I) (phosphate donor)” value [4] of the same molecule?
The value was 3.9%.

B1: DHAK (I) (Schizosaccharomyces pombe 972h-) (protein)
chain: T1 sequence (O13902 1-580)
notes: DHAK (I) and DHAK (II) obtained from Schizosaccharomyces pombe IFO 0354; made in house; host or cells: Schizosaccharomyces pombe IFO 0354 (natural producer, not recombinant); cell extract, DEAE-Sepharose fraction at 0.12 M KCl, then Blue-Sepharose
For B1, which Km [7] is on record?
Its Km is 220 µM.

What about the Km [8] of the same molecule?
Its Km is 21 µM.

And the Km [9]?
The Km was 8.4 µM.

B2: DHAK (II) (Schizosaccharomyces pombe 972h-) (protein)
chain: T2 sequence (O74215 1-591)
notes: DHAK (I) and DHAK (II) obtained from Schizosaccharomyces pombe IFO 0354; made in house; host or cells: Schizosaccharomyces pombe IFO 0354 (natural producer, not recombinant); cell extract, DEAE-Sepharose fraction at 0.16 M KCl, then Blue-Sepharose
How did the Km [10] turn out when B2 was run?
The Km was 910 µM.

What about the Km [11] of the same molecule?
Its Km is 32 µM.

What about the Km [12] of the same molecule?
The Km was 20 µM.
